Values quoted from earlier work, collected in the CATMoS acute toxicity set (Mansouri et al. 2021).
Values joined by “and” are separate entries in the source; they are usually repeats but may differ in a detail not shown here. Equal values may be shown once.

experiment: rat acute oral toxicity; conditions: in vivo

| SMILES | LD50 |
| --- | --- |
| CCC[C@@H]1C[C@@H](C(=O)N[C@@H]([C@H]2O[C@H](SC)[C@H](O)[C@@H](O)[C@H]2O)[C@H](C)Cl)N(C)C1 | 2620 mg/kg and 2190 mg/kg |
| CC(C)(OO)c1cccc(C(C)(C)OO)c1 | 1500 mg/kg |
| CCCC(=O)C1c2cccc(O)c2C(=O)c2c(O)cccc21 | 1580 mg/kg |
| CC(C)(C)[C@@H](O)/C(=C\c1ccc(Cl)cc1Cl)n1cncn1 | 474 mg/kg |
| CC=CC(=O)OCC | 3000 mg/kg |
| Clc1ccc(C(Cn2ccnc2)OCc2ccsc2Cl)c(Cl)c1 (stereo not drawn) | 770 mg/kg |
| c1ccc2c3c([nH]c2c1)CCCC3 | 2650 mg/kg |
| C=COCCOC | 3900 mg/kg |
| CC(C)c1c(C(=O)c2cccnc2)c2ccccc2n1C | 2400 mg/kg |
| OCC(F)(F)C(F)(F)C(F)(F)C(F)(F)C(F)(F)C(F)(F)C(F)(F)C(F)F | 4400 mg/kg |
| CNC(=O)Oc1cccc2c1OC(C)(C)CC2 | 3 mg/kg |
| O=C1CCCCC1(CCN1CCCCCC1)C(=O)OCc1ccccc1 (stereo not drawn) | 450 mg/kg |
| CCC(=O)OCCOc1ccccc1 | 4400 mg/kg |
| C[N+](C)(C)CCO | 6640 mg/kg |
| CCCCN1CCOCC1 | 338 mg/kg |
| O=C(OOC(=O)c1ccccc1)c1ccccc1 | 7710 mg/kg |
| O=CC=CC1CO1 (stereo not drawn) | 62 mg/kg |
| CCN(CC)CCOc1ccc(C2=C(c3ccccc3)CCc3cc(OC)ccc32)cc1 | 547 mg/kg |
| CCOC(=O)C(C)N(C(=O)c1ccccc1)c1ccc(Cl)c(Cl)c1 (stereo not drawn) | 1550 mg/kg |
| CCCCCCCCCCCCN=C([O-])C[N+](C)(C)Cc1ccccc1 | 100 mg/kg |
| CCN(CCCCCCOC(=O)c1ccc(OC)c(OC)c1)C1CCc2cc(OC)ccc2C1 (stereo not drawn) | 2830 mg/kg |
| CC(C(=O)O)c1ccc2oc3ccccc3c(=O)c2c1 (stereo not drawn) | 720 mg/kg |
| CC1C(=O)C[C@]2(C(C)C)C[C@H]12 (single isomer, unassigned; (-)) | 192 mg/kg |
| C=CCOC=O | 124 mg/kg |
| CNC(=O)Oc1ccc(N=CN(C)C)c(C)c1 | 7.2 mg/kg |
| COCC(=O)NP(=O)(OC)SC (stereo not drawn) | 200 mg/kg |

| SMILES | LD50 |
| --- | --- |
| COc1ccc2c(c1)CCC(N(CCCCOC(=O)c1ccc(OC)c(OC)c1)C(C)C)C2 (stereo not drawn) | 1540 mg/kg |
| CC(O)C(=O)O (stereo not drawn) | 2100 mg/kg |
| CNC(=O)O[C@@H]1C[C@H](C)CC[C@H]1C(C)C | 250 mg/kg |
| CCNC1C2CCC(C2)C1c1ccccc1 (stereo not drawn) | 83 mg/kg |
| COCCNC(=O)c1nc2c(N)nc(-c3ccccc3)nc2nc1NCCOC | 5010 mg/kg |
| BrCc1cccc(Oc2ccccc2)c1 | 2330 mg/kg |
| C#CC(C)(C)N | 1470 mg/kg |
| O=[N+]([O-])c1ccc(O)c(CNCCO)c1 | 23 mg/kg |
| CCC(Br)(CC)C(=O)OCC(Br)(Br)Br | 2500 mg/kg |
| C=CC(C)=CCCC(C)(C)O | 1700 mg/kg |
| CN(N=O)c1ccccn1 | 60 mg/kg |
| Cc1cccc(C)c1NC1=NCCCS1 | 130 mg/kg |
| CCCCC(C=CC(C)=O)CC (stereo not drawn) | 8120 mg/kg |
| O=C1NC(=O)C(c2ccccc2)(c2ccccc2)N1S(=O)(=O)c1ccccc1 | 1700 mg/kg |
| CC(C)NCC1CCc2cc(CO)c([N+](=O)[O-])cc2N1 (stereo not drawn) | 30 mg/kg |
| CCC(=O)CC | 2140 mg/kg |
| CCN(CC)Cc1nccn1-c1ccc([N+](=O)[O-])cc1C(=O)c1ccccc1Cl | 1580 mg/kg |
| CC(C)=C1CC[C@@H](C)CC1=O | 470 mg/kg |
| CCC1(CC)C(=O)C=CN(CN2CCOCC2)C1=O | 1950 mg/kg |
| O=S(=O)(Cl)c1ccccc1Cl | 7500 mg/kg |
| C[Si](C)(C)N=C=N[Si](C)(C)C | 1730 mg/kg |
| CNCCCC1c2ccccc2C=Cc2ccccc21 | 299 mg/kg and 240 mg/kg |
| CC=CC(=O)OC(C=CC)OC(=O)C=CC (stereo not drawn) | 2590 mg/kg |
| O=C1c2ccccc2C(=O)c2c1ccc1c2[nH]c2ccc3c4ccc5c6c(ccc(c(=O)c3c21)c46)c1ccc2c(=O)c3ccccc3c3nn5c1c23 | 11200 mg/kg |
| CC(C/N=C/c1ccccc1O)/N=C/c1ccccc1O (stereo not drawn) | 4560 mg/kg |
| O=[N+]([O-])c1cccc2ccccc12 | 150 mg/kg |

| SMILES | LD50 |
| --- | --- |
| O=C(Cl)c1ccccc1C(F)(F)F | 8200 mg/kg |
| CCCCCCCCOP(=O)(O)OCCC(Cl)Cl | 10300 mg/kg |
| OC1(c2ccc(Cl)cc2)N=CN[n+]2ccc3ccccc3c21 (stereo not drawn) | 1300 mg/kg |
| NCCN(CCN)CCN | 246 mg/kg |
| Cn1c(=O)c2c(ncn2CC(O)CN2CCN(CCCSc3ccccc3)CC2)n(C)c1=O (stereo not drawn) | 2100 mg/kg |
| NC(CO)C(=O)NNCc1ccc(O)c(O)c1O (stereo not drawn) | 5300 mg/kg |
| Nc1cc(S(=O)(=O)O)c2cccc(S(=O)(=O)O)c2c1 | 11400 mg/kg |
| C=CCn1c(N)cc(=O)n(CC)c1=O | 2300 mg/kg |
| NCCNCCNCCN | 2500 mg/kg and 2280 mg/kg |
| Nc1ccc(OCCO)c(N)c1 | 1000 mg/kg |
| CC(C)N(C)C | 684 mg/kg |
| OCCCO | 15000 mg/kg |
| CCCCCCCCCCOC(=O)Cc1ccc(N(CCCl)CCCl)cc1 | 150 mg/kg |
| Nc1cc(-c2cccs2)no1 | 1850 mg/kg |
| N#Cc1cc(Cl)c2nc(C(F)(F)F)[nH]c2c1 | 2.4 mg/kg |
| CCOC(C1=NCC(CC)(CC)CN1)c1ccccc1 (stereo not drawn) | 250 mg/kg |
| CCC(=O)c1ccc2c(c1)N(CC(C)N(C)C)c1ccccc1S2 (stereo not drawn) | 500 mg/kg |
| CCc1cc(S(=O)(=O)O)c2cc(C(C)C)cccc1-2 | 1100 mg/kg |
| COc1cccc(C(=O)CCN[C@@H](C)[C@H](O)c2ccccc2)c1 | 500 mg/kg |
| Cc1[nH]nc(Cl)c1[N+](=O)[O-] | 350 mg/kg |
| CCCNC(=O)C(C)Nc1ccc(OCC)cc1 (stereo not drawn) | 3000 mg/kg |
| CC(=O)OCCCl | 10 mg/kg |
| CC(C)N1CCCC1=O | 2900 mg/kg |
| CCNCC | 9900 mg/kg |
| CCOc1ccc(Cc2nc(C)cc3cc(OC)c(OC)cc23)cc1OC | 1960 mg/kg and 2070 mg/kg |
| CN(N=O)c1ccc(N=Nc2ccccc2)cc1 | 1200 mg/kg |
